{"source": "paper PMC8794255", "about": "“Small molecule inhibitor of Igf2bp1 represses Kras and a pro-oncogenic phenotype in cancer cells” (RNA Biology, 2021)", "key": {"[1]": {"system": "wild-type luciferase in RKO cells", "assay": "Control (wild-type) luciferase in RKO cells", "type": "cell-based", "details": "50 μM 7773", "description": "The RKO cells were seeded in DMEM with 10% calf serum 24 hrs prior to the transfection. Transfection was done using Lipofectamine 2000 with reporter plasmids and Renilla-luciferase expressing vector (as internal control). After 24 hrs, cells were lysed using passive lysis buffer (Promega catalogue # E1941). The lysates were cleared by centrifugation and its 20 μL volume was mixed with 100 μL of luciferase substrate solution for luminescence recording which was followed by addition of 100 μL of Stop-glo solution (Promega catalogue # E1910) with an additional luminescence reading. Both readings were detected by using GloMax 20/20 Luminometer (Promega), and the final value for each sample was the ratio of their two respective readings. To test the effects of 7773, transfected cells with reporter plasmids were washed with PBS after 24 hrs of transfection and incubated with medium containing 7773."}, "H1299 cells": {"system": "H1299 cells", "assay": "Cell proliferation assay (Incucyte), H1299", "type": "cell-based, human", "description": "ES2, H1299 and HEK293 cells were seeded in a 96 well plate (5X10^3 cells per well) for 24 hours before adding the compound at increasing concentrations. After an additional 24 hours, the plate was incubated in an IncuCyte® S3 Live-Cell Analysis System (Essen BioScience). The wells were filmed for 72 hours, and then analysed for proliferation rate Using IncuCyte® S3 Live-Cell Analysis System (Essen BioScience)"}, "La": {"molecular_target": "T1, La (Homo sapiens, UniProt P05455)", "T1 sequence (P05455 1-408)": "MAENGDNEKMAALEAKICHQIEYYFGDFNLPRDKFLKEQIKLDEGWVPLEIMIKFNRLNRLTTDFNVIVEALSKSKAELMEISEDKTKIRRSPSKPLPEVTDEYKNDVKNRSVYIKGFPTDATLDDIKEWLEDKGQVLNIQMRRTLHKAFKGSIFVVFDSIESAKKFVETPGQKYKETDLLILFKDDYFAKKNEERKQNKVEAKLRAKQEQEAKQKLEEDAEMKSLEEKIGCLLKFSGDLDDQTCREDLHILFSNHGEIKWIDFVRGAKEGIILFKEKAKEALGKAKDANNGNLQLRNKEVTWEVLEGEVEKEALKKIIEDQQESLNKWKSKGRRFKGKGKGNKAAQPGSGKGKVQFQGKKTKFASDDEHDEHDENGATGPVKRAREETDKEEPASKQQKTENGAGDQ", "assay": "MST, La protein", "type": "binding"}, "G9a": {"molecular_target": "T2, G9a (Homo sapiens, UniProt Q96KQ7)", "T2 sequence (Q96KQ7 1-1210)": "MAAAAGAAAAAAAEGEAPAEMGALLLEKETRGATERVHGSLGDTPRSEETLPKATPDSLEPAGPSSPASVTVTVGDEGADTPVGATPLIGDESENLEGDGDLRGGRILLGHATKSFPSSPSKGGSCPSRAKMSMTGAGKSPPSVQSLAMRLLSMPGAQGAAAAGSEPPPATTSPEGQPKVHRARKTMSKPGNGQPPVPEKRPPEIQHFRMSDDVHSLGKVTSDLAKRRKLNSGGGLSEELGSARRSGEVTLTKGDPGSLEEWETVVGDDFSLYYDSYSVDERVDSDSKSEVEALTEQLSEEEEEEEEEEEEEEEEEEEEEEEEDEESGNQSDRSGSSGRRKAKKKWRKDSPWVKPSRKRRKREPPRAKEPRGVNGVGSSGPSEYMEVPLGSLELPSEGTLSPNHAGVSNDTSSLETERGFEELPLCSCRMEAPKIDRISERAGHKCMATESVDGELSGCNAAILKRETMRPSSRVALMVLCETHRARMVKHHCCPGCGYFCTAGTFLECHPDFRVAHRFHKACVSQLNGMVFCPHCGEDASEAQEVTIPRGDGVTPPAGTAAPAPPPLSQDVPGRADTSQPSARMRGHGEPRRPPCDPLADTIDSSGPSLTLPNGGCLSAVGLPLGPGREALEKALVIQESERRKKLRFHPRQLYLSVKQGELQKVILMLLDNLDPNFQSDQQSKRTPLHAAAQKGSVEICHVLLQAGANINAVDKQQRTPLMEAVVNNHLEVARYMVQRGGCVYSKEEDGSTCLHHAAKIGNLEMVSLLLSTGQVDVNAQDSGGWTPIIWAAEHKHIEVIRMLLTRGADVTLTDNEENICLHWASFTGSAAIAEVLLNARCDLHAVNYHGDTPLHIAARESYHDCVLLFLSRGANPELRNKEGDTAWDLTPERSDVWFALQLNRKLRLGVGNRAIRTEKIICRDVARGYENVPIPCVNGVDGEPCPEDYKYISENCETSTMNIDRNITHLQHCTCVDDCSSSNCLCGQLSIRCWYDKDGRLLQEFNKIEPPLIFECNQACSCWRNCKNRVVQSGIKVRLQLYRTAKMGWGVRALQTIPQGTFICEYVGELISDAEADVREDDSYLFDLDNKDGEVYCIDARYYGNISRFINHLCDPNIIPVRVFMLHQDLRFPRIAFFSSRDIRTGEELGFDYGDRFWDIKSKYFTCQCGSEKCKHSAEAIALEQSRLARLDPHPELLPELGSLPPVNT", "assay": "G9a FP assay (SAH-FITC probe)", "type": "biochemical", "description": "For the small-molecule screen, compounds were obtained from the collection maintained at the Grand Israel National Center for Personalized Medicine, consisting of molecules purchased from commercial vendors. Labelled RNA (10 nM) was incubated with recombinant Igf2bp1 protein (400 nM) in FAM-RNA buffer (10 mM Tris pH 8.0, 75 mM KCl, 0.5 mM EDTA, 1 mM DTT, 0.0188 U/μL RNAsin, 0.0005 μg/mL heparin, 0.0001 μg/μL tRNA, 0.01% Triton X-100, 3 mM MgCl2, 0.05% IGEPAL) at room temperature for 15 min. 7 μL of this reaction mix was aliquoted with GNF WDII (USA) into wells of 1536 well plates, with a final concentration of 20 μM compound or DMSO. The plates were spun down and read in a BMG Pherastar FS (Germany) plate reader, in FP mode with a 485/520/520 polarization filter, calibrated to 35 mP for free fluorescein with similar total intensity as experimental samples. […]"}}}
{"molecule": "O=C(c1ccc(Cn2cnnn2)cc1)N1CCCC(Nc2ccc3c(c2)OCO3)C1", "note": "(centres unmarked) [compound 7773]", "values": [{"measurement": "Effect on activity of wild-type luciferase", "setting": "[1]", "result": "did not affect"}, {"measurement": "Effect on cell proliferation or cytotoxicity", "setting": "H1299 cells; H1299, 20 μM 7773", "result": "virtually no effect"}, {"measurement": "Cell proliferation", "setting": "H1299 cells; H1299, up to 20 μM", "result": "remarkably unaffected"}, {"measurement": "Binding to La", "setting": "La", "result": "No binding"}, {"measurement": "Effect on G9a catalysing methylation of a peptide", "setting": "G9a", "result": "almost no effect"}]}
